Laboratory results as given in US20210177803A1, “NEW PHARMACEUTICAL USE FOR THE TREATMENT OF HEART FAILURE” (Novartis AG, priority 2018, published 2021).
Where two headings read alike, the source gives them in different places.

Assays:
[1] = target: neprilysin (Homo sapiens, UniProt P08473); details: 200 mg LCZ696 b.i.d.; cited from earlier work
[2] = test system: ambulatory HF patients with an ejection fraction ≤40%; details: compared with enalapril; cited from earlier work
[3] = test system: patients with HFrEF following hemodynamic stabilization after an episode of ADHF; details: for Proportion of patients achieving the target dose of 200 mg LCZ696 b.i.d.: 10 weeks after randomization; for Odds ratio (OR) for up-titration success to 200 mg b.i.d.: multivariate logistic regression
From the text: The study design comprises three Epochs (phases): the Screening Epoch; the Treatment Epoch defined as 10 weeks after Randomization; and 16-week Follow-up Epoch. Patients were stratified into three groups based on their pre-admission treatment status: (a) receiving an angiotensin-converting enzyme inhibitor (ACEI), (b) receiving an angiotensin receptor blocker (ARB), or (c) ACEI/ARB-naïve patients.
The study population consists of patients hospitalized for an episode of acute decompensation of heart failure who are diagnosed with CHF NYHA class II-to-IV and reduced ejection fraction (LVEF 40%). Patients can be either with first presentation (de novo), or acute decompensation of HF due to deterioration in patients with a prior history of (chronic) HF.
Inclusion Criteria: • 1. Patients hospitalized due to acute decompensated HF episode (ADHF) as primary diagnosis) and consistent Signs and Symptoms. • 2. Diagnosis of HF New York Heart Association class II-to-IV and reduced ejection fraction: Left ventricular ejection fraction 40% at Screening. • 3. […] Stabilized (while in the hospital) for at least 24 h leading to Randomization defined as: • No need for IV diuretics in the past 24 h prior to signing ICF • Systolic blood pressure (SBP) 110 mm Hg for at least 6 h prior to Randomization • 5. Meeting one of the following criteria: • Patients on any dose of ACEI or ARB at screening • ACEI/ARB naïve patients and patients not on ACEI or ARB for at least 4 weeks before screening.
The basis for up-titration toward the target dose was taking into consideration tolerability (i.e., incidence of hypotension, renal or hepatic impairment and hyperkalemia) based on clinical evaluation and laboratory assessment.

[4] = test system: patients hospitalized for acute HFrEF
Description: The starting dose and all subsequent doses were selected to optimize the highest tolerated dose based on a systolic blood pressure (SBP) algorithm.
Inclusion Criteria: • Patients ≥18 y of age with the capacity to provide written informed consent. • Currently hospitalized for a primary diagnosis of HF, including symptoms and signs of fluid overload. • Eligible patients will be randomized no earlier than 24 hours and up to ten days after presentation while still hospitalized as long as meet the following definition of stable status: • SBP≥100 mm Hg for the preceding 6 hours prior to randomization; no symptomatic hypotension • No increase (intensification) in i.v. diuretic dose within last 6 hours prior to randomization • No i.v. inotropic drugs for 24 hours prior to randomization • No i.v. vasodilators including nitrates within last 6 hours prior to randomization • Left ventricular EF 40% within the past 6 m (including current hospitalization) using echocardiography, multi gated acquisition scan (MUGA), CT scanning, MRI or ventricular angiography, provided no subsequent study documented an EF of >40% • Elevated NT-proBNP≥1600 pg/mL OR BNP≥400 pg/mL during current hospitalization.

neprilysin, sequence (P08473 whole entry): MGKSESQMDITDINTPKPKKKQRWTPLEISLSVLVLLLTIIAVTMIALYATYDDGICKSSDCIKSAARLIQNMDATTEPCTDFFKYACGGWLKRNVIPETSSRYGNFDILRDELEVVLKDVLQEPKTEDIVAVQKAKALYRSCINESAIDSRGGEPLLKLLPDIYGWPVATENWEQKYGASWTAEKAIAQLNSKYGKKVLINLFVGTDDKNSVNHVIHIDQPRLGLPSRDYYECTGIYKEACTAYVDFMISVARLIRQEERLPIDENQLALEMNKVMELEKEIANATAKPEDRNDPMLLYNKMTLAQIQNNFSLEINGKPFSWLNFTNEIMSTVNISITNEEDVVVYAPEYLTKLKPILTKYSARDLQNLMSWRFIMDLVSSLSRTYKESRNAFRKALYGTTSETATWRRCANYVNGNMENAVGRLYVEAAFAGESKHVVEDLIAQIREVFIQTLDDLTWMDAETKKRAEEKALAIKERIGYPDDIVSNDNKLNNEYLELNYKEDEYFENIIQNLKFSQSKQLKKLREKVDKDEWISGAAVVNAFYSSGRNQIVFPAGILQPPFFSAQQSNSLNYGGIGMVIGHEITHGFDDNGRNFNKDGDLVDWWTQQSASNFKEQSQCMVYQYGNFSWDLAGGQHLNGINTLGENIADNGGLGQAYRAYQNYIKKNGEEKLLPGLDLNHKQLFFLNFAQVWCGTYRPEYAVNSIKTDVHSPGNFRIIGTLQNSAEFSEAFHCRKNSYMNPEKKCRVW

SMILES: CCCCC(=O)N(Cc1ccc(-c2ccccc2-c2nn[n-]n2)cc1)[C@H](C(=O)[O-])C(C)C.CCOC(=O)[C@H](C)C[C@@H](Cc1ccc(-c2ccccc2)cc1)NC(=O)CCC(=O)[O-].[Na+].[Na+].[Na+] [LCZ696, trisodium [3((1S,3R)-1-biphenyl-4-ylmethyl-3-ethoxycarbonyl-1-butylcarbamoyl) propionate-(S)-3′-methyl-2′-(pentanoyl{2″-(tetrazol-5-ylate)biphenyl-4′-ylmethyl}amino)butyrate]hemipentahydrate]
- Share of maximal neprilysin inhibition delivered [1]: approximately 90%
- Relative risk reduction in cardiovascular mortality and hospitalization for worsening HF [2]: 20%
- Relative RR, primary endpoint (target dose 200 mg b.i.d.) ([3]; ACEI or ARB strata compared to naive): 1.01
- Patients who achieved the target dose ([3]; ACEI/ARB naïve patients): 48.3%
- RRR, achieved target dose ([3]; ACEI/ARB naïve vs prior ACEI/ARB use): 1.008
- Patients who achieved and maintained any dose of LCZ696 for at least 2 weeks leading to week 10 ([3]; both groups): More than 86%
- Subjects maintained on any dose at week 10 ([3]; both groups (ACEI/ARB naïve and not naïve)): 88%
- Patients able to achieve and maintain any dose at week 10 ([3]; de novo HF patients): 90%
- Patients who achieved the target dose ([3]; de novo HF patients): 56.0%
- RRR, achieved target dose ([3]; de novo HF vs prior HF diagnosis): 1.30
- Feasibility and tolerability of early initiation (in words) ([3]; in-hospital or shortly after discharge): feasible and overall well tolerated
- Proportion of patients achieving the target dose of 200 mg LCZ696 b.i.d. ([3]; post-discharge arm): 50.4%
- Patients who achieved and maintained any dose of LCZ696 for at least 2 weeks leading to week 10 ([3]; post-discharge initiation): 88.8%
- Patients who achieved and maintained either 100 mg b.i.d. or 200 mg b.i.d. for at least 2 weeks leading to week 10 ([3]; post-discharge initiation): 68%
- RRR, achieved and maintained 100 mg or 200 mg b.i.d. ([3]; pre- vs post-discharge): 0.919
- RRR, achieved and maintained any dose ([3]; pre- vs post-discharge): 0.973
- Relative risk ratio (RRR), achieving target dose 200 mg b.i.d. ([3]; pre- vs post-discharge, 10 weeks): 0.893
- Proportion of patients achieving the target dose of 200 mg LCZ696 b.i.d. ([3]; pre-discharge arm): 45.0%
- Patients who achieved and maintained any dose of LCZ696 for at least 2 weeks leading to week 10 ([3]; pre-discharge initiation): 86.4%
- Patients who achieved and maintained either 100 mg b.i.d. or 200 mg b.i.d. for at least 2 weeks leading to week 10 ([3]; pre-discharge initiation): 62.5%
- Odds ratio (OR) for up-titration success to 200 mg b.i.d. ([3]; predictor: assignment to pre- or post-discharge initiation): 1.21
- Odds ratio (OR) for up-titration success to 200 mg b.i.d. ([3]; predictor: prior use of an ACEI or ARB): 1.04
- Patients who achieved the target dose ([3]; subjects with a prior HF diagnosis): 44.8%
- Patients who achieved the target dose ([3]; subjects with prior ACEI/ARB use): 47.9%
- Hyperkalemia ([4]; 8 weeks): 11.6%
- Symptomatic hypotension ([4]; 8 weeks): 10.0%
- Worsening renal function ([4]; 8 weeks): 13.6%
- Angioedema, HR ([4]; LCZ696 vs. Enalapril): 0.17
- Hyperkalemia, HR ([4]; LCZ696 vs. Enalapril): 1.25
- Symptomatic hypotension, HR ([4]; LCZ696 vs. Enalapril): 1.10
- Worsening renal function, HR ([4]; LCZ696 vs. Enalapril): 0.93
- Angioedema in patients who identified as black (in words) [4]: no angioedema
- Angioedema in patients who identified as black (in words) ([4]; listed as sacubitril-valsartan): no cases
- Angioedema events (number in words) ([4]; blinded adjudication): one
- Angioedema ([4]; blinded adjudication, 8 weeks): 0.2%
- Patients in whom the maximum target dose had been achieved ([4]; by the week 8 study visit): 56%
- Study drug prematurely discontinued prior to 8 weeks ([4]; excluding discontinuation due to death): 19.6%
- Tolerability (in words) ([4]; initiated after initial stabilization after an ADHF episode): well tolerated
